The text below walks through data of patent publication US4681699A, “Bisazo dyes and their use in liquid crystalline materials” (BASF Aktiengesellschaft, priority 1984, dated 1987).

The nature of series [1]: Solubility L of dye in liquid crystal mixture at room temperature (saturated solution, comparison of extinctions). Format: physicochemical. The method, then:
(§1) The degree of order S measured at room temperature, the solubility L likewise determined at room temperature, and the Merck liquid crystal mixtures used are summarized in Table 1 for Examples 1, 4, 5, 8, 12, 15 and 18.
(§2) The values for the degree of order and the solubility which have been measured at room temperature in ZLI 2452 are summarized in Table 2 for some of the Examples 19-46.
The solubility was determined as described below. 50 mg of the particular dye was stirred for 1 week at room temperature in 1 ml of liquid crystal, the saturated solution was centrifuged off from the residue, and the solubility was determined by comparison of extinctions.

Series [2] is described as follows: Degree of order S of dye in nematic liquid crystal mixture (dichroic ratio CR, homogeneously oriented measuring cell). It counts as physicochemical. The procedure: as §1, §2
The degree of order S was determined on the basis of the known equation [formula] in a commercial measuring cell with a homogeneous orientation (polyimide).The dichroic ratio CR was determined by measuring the extinctions E^.parallel. (measured with light polarized parallel to the preferred direction of the nematic phase) and E^.perp. (measured with light polarized perpendicular to the preferred direction of the nematic phase) and using the relationship CR=E^.parallel. /E^.perp., the dye concentrations being chosen so that E^.parallel. was from 1 to 2. The measurements were carried out using an Acta CIII spectrophotometer from Beckmann.

[3] abbreviates: liquid crystal mixture ZLI 1957/5.
The mark [4] stands for this setting: liquid crystal mixture ZLI 2452 (Table 1).
Where [5] appears, read: liquid crystal mixture ZLI 1840.
Setting [6] is: liquid crystal mixture ZLI 2585.

Take `CCCCCCCCCCCCNc1ccc(N=Nc2cc(C)c(N=Nc3nc(SC)ns3)cc2C)c2ccccc12` [Example 26]: the “Solubility L (at room temperature)” value in series [1] (ZLI 2452 (Table 2)) was 1.3%. Besides, in series [2] (ZLI 2452 (Table 2)), the “Degree of order S (at room temperature)” value is 0.76.
`CCCCCCCCSc1nsc(N=Nc2ccc(N=Nc3ccc(NCc4ccc(C5CCC(CCCC)CC5)cc4)c4ccccc34)cc2)n1` (stereo not drawn) [Example 18]: the “Solubility L (at room temperature)” value in series [1] (setting [3]) worked out at 0.9%. For the same molecule, the “Degree of order S (at room temperature)” value in series [2] (setting [3]) worked out at 0.79.
In the case of `CCCCCCCCCCCCN(C)c1ccc(N=Nc2cc(C)c(N=Nc3nc(CCCCCCC)ns3)cc2C)c2ccccc12` [Example 22], the “Solubility L (at room temperature)” value in series [1] (ZLI 2452 (Table 2)) was 1.7%. Also, the “Degree of order S (at room temperature)” value in series [2] (ZLI 2452 (Table 2)) turned out to be 0.77.
Take `CCCCC(CC)CSc1nsc(N=Nc2cc(C)c(N=Nc3ccc(NCC)c4ccccc34)cc2C)n1` (stereo not drawn) [Example 38]: the “Solubility L (at room temperature)” value in series [1] (ZLI 2452 (Table 2)) was over 5%. In series [2] (ZLI 2452 (Table 2)), the “Degree of order S (at room temperature)” value came to 0.74.
On to `CCCCCCCCSc1nsc(N=Nc2cc(C)c(N=Nc3ccc(NCCc4ccccc4)c4ccccc34)cc2C)n1` [Example 41], for which the “Solubility L (at room temperature)” value in series [1] (ZLI 2452 (Table 2)) stood at 0.6%. Further, in series [2] (ZLI 2452 (Table 2)), the “Degree of order S (at room temperature)” value is 0.74.
For `CCCCCCCCCCCCNc1ccc(N=Nc2cc(C)c(N=Nc3nc(SCCCCCCC)ns3)cc2C)c2ccccc12` [Example 35], in series [1] (ZLI 2452 (Table 2)), the “Solubility L (at room temperature)” value was 0.6%. Moreover, in series [2] (ZLI 2452 (Table 2)), the “Degree of order S (at room temperature)” value is reported as 0.79.
For the molecule `CCCCC1CCC(c2ccc(CNc3ccc(N=Nc4ccc(N=Nc5nc(SCC(CC)CCCC)ns5)c(C)c4)c4ccccc34)cc2)CC1` (stereo not drawn) [Example 45], in series [1] (ZLI 2452 (Table 2)), the “Solubility L (at room temperature)” value was 2.4%. Further, in series [2] (ZLI 2452 (Table 2)), the “Degree of order S (at room temperature)” value is 0.81.
On to `CCCCCCCCSc1nsc(N=Nc2ccc(N=Nc3ccc(N(C)CCCC)cc3)cc2)n1` [Example 1], for which the “Solubility L (at room temperature)” value in series [1] (setting [3]) turned out to be 1.5%. Moreover, the “Degree of order S (at room temperature)” value in series [2] (setting [3]) stood at 0.72.
Take `CCCCCCCCSc1nsc(N=Nc2cc(C)c(N=Nc3ccc(N(C)C)cc3C)cc2C)n1` [Example 8]: the “Solubility L (at room temperature)” value in series [1] (setting [3]) is on record as 1.5%. In addition, the “Degree of order S (at room temperature)” value in series [2] (setting [3]) was 0.73; in series [2] (setting [4]), 0.76.
As to `CCCCCCCCSc1nsc(N=Nc2cc(C)c(N=Nc3ccc(Nc4ccc(CCCC)cc4)c4ccccc34)cc2C)n1` [Example 43], the “Solubility L (at room temperature)” value in series [1] (ZLI 2452 (Table 2)) is 3.2%. In addition, the “Degree of order S (at room temperature)” value in series [2] (ZLI 2452 (Table 2)) came out at 0.71.
`CCCCC1CCC(c2ccc(CNc3ccc(N=Nc4cc(C)c(N=Nc5nc(SCC(CC)CCCC)ns5)cc4C)c4ccccc34)cc2)CC1` (stereo not drawn) [Example 46]: the “Solubility L (at room temperature)” value in series [1] (ZLI 2452 (Table 2)) amounted to 0.8%. Also, in series [2] (ZLI 2452 (Table 2)), the “Degree of order S (at room temperature)” value is on record as 0.80.
As to `Cc1cc(N=Nc2ccc(N(C)C)cc2C)c(C)cc1N=Nc1nc(SCc2ccccc2)ns1` [Example 5], the “Solubility L (at room temperature)” value in series [1] (setting [5]) is reported as 0.3%. Moreover, the “Degree of order S (at room temperature)” value in series [2] (setting [5]) came to 0.74.
In the case of `CCCCCCCCNc1ccc(N=Nc2cc(C)c(N=Nc3nc(SCCCCCCCC)ns3)cc2C)c2ccccc12` [Example 36], the “Solubility L (at room temperature)” value in series [1] (ZLI 2452 (Table 2)) was 0.8%. The “Degree of order S (at room temperature)” value in series [2] (ZLI 2452 (Table 2)) was determined as 0.77.
As to `CCCCCCCCSc1nsc(N=Nc2cc(C)c(N=Nc3ccc(NCc4ccc(CCCCC)cc4)c4ccccc34)cc2C)n1` [Example 42], the “Solubility L (at room temperature)” value in series [1] (ZLI 2452 (Table 2)) was 0.4%. In addition, in series [2] (ZLI 2452 (Table 2)), the “Degree of order S (at room temperature)” value turned out to be 0.80.
For `CCCCCCCCNc1ccc(N=Nc2cc(C)c(N=Nc3nc(SCCCCCCCC)ns3)cc2C)c2ccc(C)nc12` [Example 19] the same measures were 0.6% and 0.75.
Take `CCCCCCCCCCCCNc1ccc(N=Nc2cc(C)c(N=Nc3nc(SCCCCCCCCCCCC)ns3)cc2C)c2ccccc12` [Example 40]: in series [1] (ZLI 2452 (Table 2)), the “Solubility L (at room temperature)” value is 1.2%. Also, the “Degree of order S (at room temperature)” value in series [2] (ZLI 2452 (Table 2)) was 0.77.
For `CCCCC1CCC(c2ccc(CNc3ccc(N=Nc4ccc(N=Nc5nc(SCC(CC)CCCC)ns5)cc4)c4ccccc34)cc2)CC1` (stereo not drawn) [Example 44] the same measures were 2.6% and 0.81.
As to `CCCCCCCCSc1nsc(N=Nc2cc(C)c(N=Nc3ccc(NCc4ccc(C5CCC(CCCC)CC5)cc4)c4ccccc34)cc2C)n1` (stereo not drawn) [Example 15], the “Solubility L (at room temperature)” value is given as 1.4% in series [1] (setting [3]), 2.8% in series [1] (setting [4]) and 2.8% in series [1] (setting [6]). Besides, the “Degree of order S (at room temperature)” value was found to be 0.77 in series [2] (setting [3]), 0.81 in series [2] (setting [4]) and 0.74 in series [2] (setting [6]).
Consider `CCNc1ccc(N=Nc2cc(C)c(N=Nc3nc(SC)ns3)cc2C)c2ccccc12` [Example 12], for which the “Solubility L (at room temperature)” value in series [1] (setting [5]) turned out to be 0.7%. For the same molecule, the “Degree of order S (at room temperature)” value in series [2] (setting [5]) stood at 0.72.
On to `CCCCSc1nsc(N=Nc2cc(C)c(N=Nc3ccc(N(C)C)cc3C)cc2C)n1` [Example 4], for which the “Solubility L (at room temperature)” value in series [1] (setting [5]) is recorded as 0.9%. Besides, in series [2] (setting [5]), the “Degree of order S (at room temperature)” value is 0.73.
